Measured values as given in patent US9302999B2, “Substituted triazoles as herbicides” (E. I. DU PONT DE NEMOURS AND COMPANY, priority 2012, dated 2016).
Where two headings read alike, the source gives them in different places.

Assays:
Assay type in all cases: in vivo
rice (Oryza sativa) = assay: Test C flooded paddy test: rice; conditions: scale 0 to 100 (0 no effect, 100 complete control); for plant injury at 62 g/ha / plant injury at 250 g/ha / plant injury at 125 g/ha: Oryza sativa, read-out: Plant response rating, Rice
Outline: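 Plants were grown to the 2-leaf stage, pots flooded to 3 cm above soil, and test compounds applied directly to the paddy water, with that depth held throughout. After 13 to 15 days in a greenhouse, injury was visually rated against controls on a 0 (no effect) to 100 (complete control) scale.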

[1] = system: oat, wild (wild oat, Avena fatua); assay: Test D pre-/postemergence: oat, wild
From the text: (§1) Seeds of plant species selected from bluegrass (annual bluegrass, Poa annua), blackgrass (Alopecurus myosuroides), canarygrass (Phalaris minor), chickweed (common chickweed, Stellaria media), galium (catchweed bedstraw, Galium aparine), bromegrass, downy (downy bromegrass, Bromus tectorum), field poppy (Papaver rhoeas), field violet (Viola arvensis), foxtail, green (green foxtail, Setaria viridis), deadnettle (henbit deadnettle, Lamium amplexicaule), ryegrass, Italian (Italian ryegrass, Lolium multiflorum), kochia (Kochia scoparia), lambsquarters (Chenopodium album), oilseed rape (Brassica napus), pigweed (Amaranthus retroflexus), Russian thistle (Salsola iberica), chamomile (scentless chamomile, Matricaria inodora), speedwell (bird's-eye speedwell, Veronica persica), barley, spring (spring barley, Hordeum vulgare), wheat, spring (spring wheat, Triticum aestivum), buckwheat, wild (wild buckwheat, Polygonum convolvulus), mustard, wild (wild mustard, Sinapis arvensis), oat, wild (wild oat, Avena fatua), radish, wild (wild radish, Raphanus raphanistrum), windgrass (Apera spica-venti), barley, winter (winter barley, Hordeum vulgare), and wheat, winter (winter wheat, Triticum aestivum) were planted into a silt loam soil and treated preemergence with test chemicals formulated in a non-phytotoxic solvent mixture which included a surfactant. At the same time, these same crop and weed species were planted in pots containing the planting medium comprising spaghnum peat moss, vermiculite, wetting agent and starter nutrients and treated with postemergence applications of the test chemicals formulated in the same manner. Plants ranged in height from 2 to 18 cm (1- to 4-leaf stage).
(§2) Treated plants and controls were maintained in a controlled growth environment for 14 to 21 days after which time all species were compared to controls and visually evaluated. Plant response ratings, summarized in Table D, are based on a scale of 0 to 100 where 0 is no effect and 100 is complete control. A dash (-) response means no test result.

kochia (Kochia scoparia) = assay: Test D pre-/postemergence: kochia
From the text: as §1, §2

[2] = Flood (flooded paddy test), 62 g ai/ha, visual rating after 13 to 15 days
[3] = Flood (flooded paddy test), 250 g ai/ha, visual rating after 13 to 15 days
[4] = Postemergence, 31 g ai/ha, scale 0 to 100 (0 no effect, 100 complete control)
[5] = Postemergence, 62 g ai/ha, scale 0 to 100 (0 no effect, 100 complete control)
[6] = Postemergence, 125 g ai/ha, scale 0 to 100, 0 no effect, 100 complete control
[7] = Postemergence, 250 g ai/ha, scale 0 to 100 (0 no effect, 100 complete control)
[8] = Preemergence, 31 g ai/ha, scale 0 to 100, 0 no effect, 100 complete control
[9] = Preemergence, 62 g ai/ha, scale 0 to 100
[10] = Preemergence, 125 g ai/ha, scale 0 to 100
[11] = Preemergence, 250 g ai/ha, scale 0 to 100
[12] = Postemergence, 16 g ai/ha, scale 0 to 100
[13] = Flood (flooded paddy test), 125 g ai/ha, visual rating after 13 to 15 days
[14] = Preemergence, 16 g ai/ha, scale 0 to 100, 0 no effect, 100 complete control

SMILES	plant injury at 62 g/ha (rice (Oryza sativa); [2]) [%]	plant injury at 250 g/ha (rice (Oryza sativa); [3]) [%]	Plant response rating: Oat, Wild [1, 4]	Plant response rating: Oat, Wild [1, 5]	Plant response rating: Oat, Wild [1, 6]	Plant response rating: Oat, Wild [1, 7]	Plant response rating, Oat, Wild [1, 8]	Plant response rating, Oat, Wild [1, 9]	Plant response rating, Oat, Wild [1, 10]	Plant response rating, Oat, Wild [1, 11]	Plant response rating: Kochia (kochia (Kochia scoparia); [4])	Plant response rating: Kochia (kochia (Kochia scoparia); [5])	Plant response rating: Kochia (kochia (Kochia scoparia); [6])	Plant response rating: Kochia (kochia (Kochia scoparia); [7])	Plant response rating, Kochia (kochia (Kochia scoparia); [8])	Plant response rating, Kochia (kochia (Kochia scoparia); [9])	Plant response rating, Kochia (kochia (Kochia scoparia); [10])	Plant response rating, Kochia (kochia (Kochia scoparia); [11])	Plant response rating, Oat, Wild [1, 12]	Plant response rating, Kochia (kochia (Kochia scoparia); [12])	also measured
Cc1nn(-c2ccc(C(F)(F)F)cc2)nc1Oc1csc(C(F)(F)F)c1 [Compound 1, 4-methyl-2-[4-(trifluoromethyl)phenyl]-5-[[5-(trifluoromethyl)-3-thienyl]oxy]-2H-1,2,3-triazole]	0	0	–	–	–	–	–	–	–	–	–	–	–	–	–	–	–	–	–	–	–
FC(F)(F)COc1nn(-c2ccc(C(F)(F)F)cc2)nc1Cc1ccnc(C(F)(F)F)c1 [Compound 14, 4-[[5-(2,2,2-trifluoroethoxy)-2-[4-(trifluoromethyl)phenyl]-2H-1,2,3-triazol-4-yl]methyl]-2-(trifluoromethyl)pyridine]	40	45	15	25	40	55	0	20	20	50	95	95	100	100	10	40	80	90	–	–	–
COc1nn(-c2ccc(C(F)(F)F)cc2)nc1Cc1ccnc(C(F)(F)F)c1 [Compound 15, 4-[[5-methoxy-2-[4-(trifluoromethyl)phenyl]-2H-1,2,3-triazol-4-yl]methyl]-2-(trifluoromethyl)pyridine]	45	50	10	10	30	40	–	15	40	100	90	90	100	100	0	0	70	100	10	20	–
Cc1nn(-c2ccc(C(F)(F)F)cn2)nc1Oc1ccnc(C(F)(F)F)c1 [Compound 23]	–	–	10	10	15	20	–	–	–	–	80	85	90	95	–	–	–	–	10	20	Plant response rating, Rice (rice (Oryza sativa); [2]): 0; Plant response rating, Rice (rice (Oryza sativa); [13]): 0; Plant response rating, Rice (rice (Oryza sativa); [3]): 30; Plant response rating, Rice (rice (Oryza sativa); Flood, 31 g ai/ha): 0
Cc1nn(-c2ccc(C(F)(F)F)cn2)nc1Cc1cccc(C(F)(F)F)c1 [Compound 106]	–	–	5	5	5	20	0	0	10	10	60	70	95	100	0	0	30	30	0	60	Plant response rating, Rice (rice (Oryza sativa); [13]): 25; Plant response rating, Rice (rice (Oryza sativa); [3]): 30; Plant response rating, Rice (rice (Oryza sativa); Flood, 31 g ai/ha): 0; Plant response rating, Rice (rice (Oryza sativa); Flood, 62 g ai/ha): 0
COCc1nn(-c2ccc(C(F)(F)F)cc2)nc1Oc1cccc(OC(F)(F)F)c1 [Compound 115, 4-(methoxymethyl)-5-[3-(trifluoromethoxy)phenoxy]-2-[4-(trifluoromethyl)phenyl]-2H-1,2,3-triazole]	–	40	–	–	–	–	–	–	–	–	–	–	–	–	–	–	–	–	–	–	plant injury at 125 g/ha (rice (Oryza sativa); [13]): 30%; plant injury at 62 g/ha (rice (Oryza sativa); Flood, 62 g ai/ha): 20%
FCc1nn(-c2ccc(C(F)(F)F)cc2)nc1Oc1cccc(OC(F)(F)F)c1 [Compound 116, 4-(fluoromethyl)-5-[3-(trifluoromethoxy)phenoxy]-2-[4-(trifluoromethyl)phenyl]-2H-1,2,3-triazole]	–	30	–	–	–	–	–	–	–	–	–	–	–	–	–	–	–	–	–	–	plant injury at 125 g/ha (rice (Oryza sativa); [13]): 20%; plant injury at 62 g/ha (rice (Oryza sativa); Flood, 62 g ai/ha): 0%
Cc1nn(-c2ccc(C(F)(F)F)cc2)nc1Oc1ccnc(C(F)(F)F)c1 [Compound 120]	–	–	10	20	35	70	5	25	55	100	98	100	100	100	10	30	95	100	10	98	Plant response rating, Oat, Wild [1, 14]: 0; Plant response rating, Rice (rice (Oryza sativa); [13]): 70; Plant response rating, Rice (rice (Oryza sativa); [3]): 80; Plant response rating, Rice (rice (Oryza sativa); Flood, 62 g ai/ha): 60; Plant response rating, Kochia (kochia (Kochia scoparia); [14]): 0
COc1nn(-c2ccc(C(F)(F)F)cc2)nc1Cc1ccnc(C(F)F)c1 [Compound 138]	–	–	20	30	50	75	–	–	–	–	95	100	100	100	–	–	–	–	10	95	–
Cc1nn(-c2ccc(F)c(C(F)(F)F)c2)nc1Cc1ccnc(C(F)(F)F)c1 [Compound 156]	–	–	15	20	65	–	10	25	90	–	80	95	90	–	30	65	80	–	10	75	Plant response rating, Oat, Wild [1, 14]: 5; Plant response rating, Kochia (kochia (Kochia scoparia); [14]): 10
